Data set [1] has as its system D283 Med. Put plainly: Antitumor activity against human D283 Med cells assessed as inhibition of cell proliferation. It counts as functional, cell-based.
Data set [2] deals with Daoy. Put plainly: Antitumor activity against human Daoy cells assessed as inhibition of cell proliferation. The data set is classed as functional, cell-based.
Data set [3] concerns D283 Med. Put plainly: Antiproliferative activity against human D283 Med cells assessed as reduction in cell viability incubated for 48 hrs by MTT assay. It counts as functional, cell-based.
The subject of data set [4] is Daoy. Put plainly: Antiproliferative activity against human Daoy cells assessed as reduction in cell viability incubated for 48 hrs by MTT assay. The data set is classed as functional, cell-based.
Data set [5] deals with Daoy. Put plainly: Antiproliferative activity against human Daoy cells assessed as inhibition of cell proliferation incubated for 72 hrs by MTS assay. The data set is classed as functional, cell-based. (Tetrazolium dyes change colour on reduction, which living cells bring about.)
A short description of data set [6]: Antiproliferative activity against human UW228 cells assessed as inhibition of cell proliferation incubated for 72 hrs by MTS assay. The settings on record: UW228, 72 h. It counts as functional, cell-based.
Data set [7] can be described thus: Anticancer activity against human UW228 cells assessed as reduction in cell viability incubated for 72 hrs by CCK assay. It counts as functional, cell-based. The conditions noted are these: UW228, 72 h.
Data set [8] in a line: Anticancer activity against human UW426 cells assessed as reduction in cell viability incubated for 72 hrs by CCK assay. It counts as functional, cell-based. The settings on record: UW426, 72 h.
A short description of data set [9]: Anticancer activity against human MED-MEB-8A cells assessed as reduction in cell viability incubated for 72 hrs by CCK assay. It counts as functional, cell-based.
The target of data set [10] is T1, Protein smoothened (Homo sapiens, UniProt Q99835). Briefly: Binding affinity to human SMO (181 to 787 residues) expressed in human HEK293 cells assessed as radioactivity incubated for 2 hrs in presence of H3-labeled smo antagonist by ligand-displacement assay. It counts as cell-based.
T1 sequence (Q99835 whole entry, the tested form may be a part): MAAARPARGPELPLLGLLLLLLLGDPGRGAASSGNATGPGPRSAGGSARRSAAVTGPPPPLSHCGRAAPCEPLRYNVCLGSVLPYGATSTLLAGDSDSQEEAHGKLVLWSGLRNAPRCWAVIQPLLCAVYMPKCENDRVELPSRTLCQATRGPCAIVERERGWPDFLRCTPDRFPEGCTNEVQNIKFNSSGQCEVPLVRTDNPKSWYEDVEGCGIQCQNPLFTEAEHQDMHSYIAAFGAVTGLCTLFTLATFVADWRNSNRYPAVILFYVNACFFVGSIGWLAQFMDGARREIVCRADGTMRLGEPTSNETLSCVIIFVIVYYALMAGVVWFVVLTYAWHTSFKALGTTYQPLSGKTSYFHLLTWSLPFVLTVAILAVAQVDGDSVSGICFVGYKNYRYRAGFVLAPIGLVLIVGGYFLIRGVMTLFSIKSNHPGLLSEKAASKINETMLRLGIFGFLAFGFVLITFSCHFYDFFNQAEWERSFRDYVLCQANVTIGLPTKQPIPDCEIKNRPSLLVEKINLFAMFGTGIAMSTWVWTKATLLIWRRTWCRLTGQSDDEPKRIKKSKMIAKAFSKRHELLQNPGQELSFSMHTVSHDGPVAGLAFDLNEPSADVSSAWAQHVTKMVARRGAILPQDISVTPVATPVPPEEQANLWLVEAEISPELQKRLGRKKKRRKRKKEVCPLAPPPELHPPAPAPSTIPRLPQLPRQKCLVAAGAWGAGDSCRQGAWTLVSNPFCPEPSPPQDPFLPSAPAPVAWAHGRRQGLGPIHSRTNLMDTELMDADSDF
Data set [11] can be described thus: Inhibition of Shh-induced hedgehog signalling pathway in mouse MEF cells expressing Gli-Luc reporter gene assessed as reduction in Gli1 transcription activity incubated for 48 hrs in presence of recombinant mouse shh stimulation by Bright-Glo luciferase Assay.
Data set [12] can be described thus: Cytotoxicity against human D384 Med cells assessed as reduction in cell viability incubated for 48 hrs by Cell TiterGlo luminescent assay. The data set is classed as functional, cell-based. The settings on record: pooled result: one value given for 10 cell lines, strains, targets or settings. Background: ATP-based viability assays read luminescence as a measure of living cells.

Data set [13] in a line: Inhibition of Hedgehog signaling in mouse NIH3T3 cells expressing GRE-Luc reporter gene assessed luciferase activity incubated for 48 hrs in presence of SAG by Bright-Glo luciferase assay. The data set is classed as cell-based. On the technique in general: In a reporter assay the amount or activity of a reporter protein is the signal.
Data set [14] can be described thus: Ratio of AUC (0 to infinity) in brain to plasma of C57BL mouse at 20 mg/kg, iv by HPLC/MS/MS method. It counts as ADME, organism-based. The settings on record: brain and plasma, read-out: Ratio AUC.
Data set [15] deals with T2, Protein smoothened (Homo sapiens, UniProt Q99835, D473H). Briefly: Antagonist activity at resistant Smo D473H mutant (unknown origin) expressed in mouse C3H 10T1/2 cells cotransfected with Gli reporter gene assessed as Gli luciferase activity incubated for 24 hrs by dual luciferase assay. The data set is classed as functional, cell-based.
T2 sequence (Q99835 28-787 D473H limits assumed): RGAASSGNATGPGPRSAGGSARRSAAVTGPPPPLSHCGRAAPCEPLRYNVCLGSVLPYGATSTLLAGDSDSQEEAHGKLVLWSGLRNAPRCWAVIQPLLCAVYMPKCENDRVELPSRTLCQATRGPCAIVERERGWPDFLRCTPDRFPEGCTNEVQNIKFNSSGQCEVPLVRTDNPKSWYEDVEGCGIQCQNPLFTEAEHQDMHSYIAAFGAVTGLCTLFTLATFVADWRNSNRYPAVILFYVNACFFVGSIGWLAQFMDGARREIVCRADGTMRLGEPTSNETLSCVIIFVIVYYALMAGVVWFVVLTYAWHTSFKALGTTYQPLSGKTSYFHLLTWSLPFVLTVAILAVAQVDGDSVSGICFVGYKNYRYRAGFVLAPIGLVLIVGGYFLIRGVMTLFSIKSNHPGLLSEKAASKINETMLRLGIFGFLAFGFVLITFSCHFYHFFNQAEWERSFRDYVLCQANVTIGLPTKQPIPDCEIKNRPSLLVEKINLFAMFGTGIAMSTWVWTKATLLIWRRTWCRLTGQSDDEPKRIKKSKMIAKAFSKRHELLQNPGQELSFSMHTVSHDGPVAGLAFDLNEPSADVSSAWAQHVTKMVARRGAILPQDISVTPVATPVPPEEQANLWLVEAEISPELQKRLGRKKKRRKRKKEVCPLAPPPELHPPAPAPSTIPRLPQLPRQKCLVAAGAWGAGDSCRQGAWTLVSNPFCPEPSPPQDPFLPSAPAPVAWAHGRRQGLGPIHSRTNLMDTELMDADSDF
The target of data set [16] is T2, Protein smoothened. Briefly: Inhibition of Smo D473H mutant (unknown origin) expressed in mouse NIH3T3 cells cotransfected with Gli luciferase reporter gene assessed as Gli luciferase activity incubated for 48 hrs by Bright-Glo reagent based luciferase assay. It counts as cell-based.
Data set [17] can be described thus: Inhibition of hedgehog signalling in mouse NIH3T3 cells cotransfected with Gli luciferase reporter gene assessed as Gli luciferase activity incubated for 48 hrs by Bright-Glo reagent based luciferase assay. The conditions noted are these: NIH3T3, 48 h. The data set is classed as cell-based.
For data set [18], the system named is Daoy. Briefly: Antiproliferative activity against human Daoy cells assessed as inhibition of cell growth incubated for 24 to 96 hrs by MTT assay. The conditions noted are these: time 24-96 hrs. The data set is classed as functional.
Data set [19] concerns ONS-76. Put plainly: Antiproliferative activity against human ONS-76 cells assessed as inhibition of cell growth incubated for 24 to 96 hrs by MTT assay. It counts as functional. The settings on record: time 24-96 hrs.
A short description of data set [20]: Antiproliferative activity against human Medulloblastoma cells expressing MYC and wild type Gfi1 assessed as reduction in cell viability incubated for 48 hrs by Cell TiterGlo luminescent assay. It counts as functional, cell-based.
In data set [21] the target is T1, Protein smoothened. Briefly: Inhibition of endogenous human Smo overexpressed in mouse C3H 10T1/2 cells cotransfected with Gli reporter gene assessed as Gli luciferase activity by dual luciferase assay. The data set is classed as functional, cell-based.
For data set [22], the target named is Protein smoothened (Mus musculus, UniProt P56726). Briefly: Inhibition of endogenous mouse Smo overexpressed in mouse C3H 10T1/2 cells cotransfected with Gli reporter gene assessed as Gli luciferase activity by dual luciferase assay. It counts as functional, cell-based.
Chain of Protein smoothened (Mus musculus, UniProt P56726) (P56726 whole entry): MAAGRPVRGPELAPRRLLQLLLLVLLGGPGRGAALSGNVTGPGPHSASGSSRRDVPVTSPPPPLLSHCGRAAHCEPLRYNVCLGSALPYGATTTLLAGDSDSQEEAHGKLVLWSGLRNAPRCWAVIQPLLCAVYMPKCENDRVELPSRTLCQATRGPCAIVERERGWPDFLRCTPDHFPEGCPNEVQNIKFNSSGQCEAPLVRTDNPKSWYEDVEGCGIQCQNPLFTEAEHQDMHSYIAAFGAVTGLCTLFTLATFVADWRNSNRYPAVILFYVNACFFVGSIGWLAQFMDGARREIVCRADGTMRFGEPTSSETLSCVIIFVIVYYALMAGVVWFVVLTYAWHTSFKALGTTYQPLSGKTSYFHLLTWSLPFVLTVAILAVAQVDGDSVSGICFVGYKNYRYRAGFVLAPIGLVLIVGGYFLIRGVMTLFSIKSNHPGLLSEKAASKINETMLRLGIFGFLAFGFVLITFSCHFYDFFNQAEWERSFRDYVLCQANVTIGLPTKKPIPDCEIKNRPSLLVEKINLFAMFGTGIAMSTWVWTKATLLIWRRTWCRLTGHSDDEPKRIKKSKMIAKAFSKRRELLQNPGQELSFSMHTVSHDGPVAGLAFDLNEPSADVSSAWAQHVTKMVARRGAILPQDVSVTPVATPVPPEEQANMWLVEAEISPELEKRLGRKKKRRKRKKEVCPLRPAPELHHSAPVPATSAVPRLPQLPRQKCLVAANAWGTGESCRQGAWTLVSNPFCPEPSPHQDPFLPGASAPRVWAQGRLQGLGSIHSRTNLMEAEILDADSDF
A short description of data set [23]: Half life in CD-1 mouse plasma at 10 mg/kg, po administered as single dose. It counts as ADME, organism-based.
The subject of data set [24] is ONS-76. Put plainly: Antitumor activity against human ONS-76 cells assessed as inhibition of cell growth incubated for 72 hrs by CellTiter-Glo luminescent assay. The data set is classed as functional.
The nature of data set [25]: Antitumor activity against human UW228 cells assessed as inhibition of cell growth incubated for 72 hrs by CellTiter-Glo luminescent assay. It counts as functional.
The nature of data set [26]: Antitumor activity against human HD-MB03 cells assessed as inhibition of cell growth incubated for 72 hrs by CellTiter-Glo luminescent assay. The data set is classed as functional.
In data set [27] the test system is Daoy. Briefly: Antitumor activity against human Daoy cells assessed as inhibition of cell growth incubated for 72 hrs by CellTiter-Glo luminescent assay. The data set is classed as functional.

pIC50: −log10 of the molar value.

By pIC50 is commonly meant −log10 of the IC50, conventionally taken in molar units. `CCN1CCN(Cc2ccc(-c3cc4c(N[C@H](C)c5ccccc5)ncnc4[nH]3)cc2)CC1` [AEE-788]: the pIC50 with D283 Med [1] is 5.42; with Daoy [2] it was 5.77.

Regarding `Cn1cc(CNCC2CCN(c3ncc(C(=O)NO)cn3)CC2)c2ccccc21` [QUISINOSTAT], the pIC50 is above 6.70 in the data set with D283 Med [3] and above 7.00 with Daoy [4].

In the case of `O=C(/C=C/c1ccc(CN(CCO)CCc2c[nH]c3ccccc23)cc1)NO` [DACINOSTAT], the figures for the pIC50 with D283 Med [3] and with Daoy [4] were above 6.70 and above 7.00, respectively.

`C=CCn1c(=O)c2cnc(Nc3ccc(N4CCN(C)CC4)cc3)nc2n1-c1cccc(C(C)(C)O)n1` [ADAVOSERTIB]: the values for the pIC50 (with Daoy [5]; in [6]) were 6.82 and 6.63, respectively.

As for `Cc1[nH]c2ccccc2c1CCNCc1ccc(/C=C/C(=O)NO)cc1` [PANOBINOSTAT], the results for the pIC50 in data set [7], in data set [8] and in [9] were 7.27, 7.17 and 7.34, respectively.

In the case of `Cc1cnc(-c2cc(N3CCN(C(=O)CCS(C)(=O)=O)CC3)ncc2Cl)c(C)c1`, the values for the negative logarithm of the IC50 (pIC50) (on Protein smoothened [10]; in data set [11]) were 8.24 and 8.57, respectively.

`Nc1cc(C(F)(F)F)c(-c2cc(N3CCOCC3)nc(N3CCOCC3)n2)cn1` [BUPARLISIB]: the negative logarithm of the IC50 (pIC50) in [12] was 6.55.

Turning to `Cc1cnc(-c2cc(N3CCc4nc(N5CCC(O)CC5)ncc4C3)ccc2Cl)c(C)c1`, the negative logarithm of the IC50 (pIC50) in [13] is 8.12.

As to `Cc1c(Cc2ccccc2)nnc(N2CCN(c3cnc(C(C)(C)O)cn3)[C@H](C)C2)c1C` [LEQ506], the Kp in data set [14] came out at 0.69. The pIC50 on Protein smoothened [15] was 7.02.

As for `CCc1cc2c(c(OCC(F)(F)F)c(C(=O)NC3CCN(C(=O)CO)CC3)n2C)c(=O)n1CC(=O)c1ccccc1` [TAK-441], the negative logarithm of the IC50 (pIC50) at Protein smoothened [16] was 7.10; in data set [17], 8.36.

For orientation: GI50 means the concentration giving 50% growth inhibition. For the compound `CC1=C(/C=C/C(C)=C/C=C/C(C)=C/C(=O)Nc2ccc(O)cc2)C(C)(C)CCC1` [FENRETINIDE], the GI50 is 5000 nM in the data set with Daoy [18] and 2000 nM in the data set on ONS-76 [19].

With `c1ccc([C@@H]2C[C@H]2NC2CCNCC2)cc1`, the pIC50 in data set [20] was 10.30.

Take `COc1ccc(Cn2c3ncnc4c(ncn4Cc4ccc(OC)cc4)c-3nc2=O)cc1`: the negative-log IC50 (pIC50) with Daoy [5] is 5.60; in [6] it was 5.46.

A word on the half-life: it is the time in which the quantity being followed falls by half. A lower half-life goes with fast loss. As to `C[C@@H]1CN(c2ccc(C(=O)Nc3ccc(Cl)c(NC(=O)c4cccc(Cl)c4)c3)cn2)C[C@H](C)N1`, the figures for the negative logarithm of the IC50 (pIC50) at Protein smoothened [21] and on Protein smoothened [22] were 8.10 and 7.57, respectively. Besides, the half-life in [23] is 22 h.

For the compound `Cc1sc2c(c1C)C(c1ccc(Cl)cc1)=N[C@@H](CC(=O)Nc1ccc(O)cc1)c1nnc(C)n1-2` [BIRABRESIB], the GI50 (in the data set on ONS-76 [24]; in data set [25]; in data set [26]; in the data set on Daoy [27]) was 160 nM each time.
